Several values for one entry are separate records, joined by “and”; a condition that tells them apart may be missing. Identical values can stand only once.
Columns and labels:
Assay in all cases: Disruption of BRAF RBD interaction with Ras (FRET / MOA assay, with Cyclophilin A)
Assay type in all cases: biochemical
KRAS G12C = KRAS G12C (Homo sapiens, UniProt P01116+P62937, G12C); conditions: KRAS G12C; read-out: KRAS G12C FRET data IC50
Source text: (§1) This protocol may also be executed substituting other Ras proteins or nucleotides.
(§2) The purpose of this biochemical assay was to measure the ability of test compounds to facilitate ternary complex formation between a nucleotide-loaded K-Ras isoform and Cyclophilin A; the resulting ternary complex disrupts binding to a BRAF^RBD construct, inhibiting K-Ras signaling through a RAF effector. Data is reported as IC50 values.
(§3) Compound was present in plate wells as a 10-point 3-fold dilution series starting at a final concentration of 30 μM. After incubation at 25° C. for 3 hours, a mixture of Anti-His Eu-W1024 and anti-GST allophycocyanin was then added to assay sample wells at final concentrations of 10 nM and 50 nM, respectively, and the reaction incubated for an additional 1.5 hours. […] Compounds that facilitate disruption of a K-Ras:RAF complex were identified as those eliciting a decrease in the TR-FRET ratio relative to DMSO control wells.
as §2, with “BRAF^RBDD” for “BRAF^RBD”

KRAS G12D = KRAS G12D (Homo sapiens, UniProt P01116+P62937, G12D); conditions: read-out: KRAS G12D FRET data, IC50
Sequence of KRAS G12D (P01116 1-169 isoform P01116-2 G12D limits assumed): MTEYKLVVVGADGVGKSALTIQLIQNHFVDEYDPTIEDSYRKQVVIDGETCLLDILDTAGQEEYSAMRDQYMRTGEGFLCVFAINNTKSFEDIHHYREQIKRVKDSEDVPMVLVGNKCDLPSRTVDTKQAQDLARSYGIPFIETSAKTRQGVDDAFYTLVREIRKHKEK
Sequence of KRAS G12D (P62937 whole entry): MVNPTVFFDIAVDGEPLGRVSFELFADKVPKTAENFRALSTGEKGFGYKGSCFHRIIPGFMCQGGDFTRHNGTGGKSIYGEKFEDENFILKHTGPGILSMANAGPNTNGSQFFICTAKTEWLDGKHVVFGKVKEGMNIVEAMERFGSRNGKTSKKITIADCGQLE
Source text: as §1, §2, §3
as §2, with “BRAF^RBDD” for “BRAF^RBD”

KRAS G12S = KRAS G12S (Homo sapiens, UniProt P01116+P62937, G12S); conditions: read-out: KRAS G12S FRET data, IC50
Sequence of KRAS G12S (P01116 1-169 isoform P01116-2 G12S limits assumed): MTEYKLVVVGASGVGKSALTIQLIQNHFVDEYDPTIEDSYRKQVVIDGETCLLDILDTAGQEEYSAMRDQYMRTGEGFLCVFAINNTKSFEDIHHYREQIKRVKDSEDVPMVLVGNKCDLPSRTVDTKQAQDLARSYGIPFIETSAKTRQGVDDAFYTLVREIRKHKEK
Sequence of KRAS G12S (P62937 whole entry): as the sequence (P62937 whole entry) above
Source text: as §1, §2, §3
as §2, with “BRAF^RBDD” for “BRAF^RBD”

KRAS G12V = KRAS G12V (Homo sapiens, UniProt P01116+P62937, G12V); conditions: KRAS G12V; read-out: KRAS G12V FRET data IC50
Sequence of KRAS G12V (P01116 1-169 isoform P01116-2 G12V limits assumed): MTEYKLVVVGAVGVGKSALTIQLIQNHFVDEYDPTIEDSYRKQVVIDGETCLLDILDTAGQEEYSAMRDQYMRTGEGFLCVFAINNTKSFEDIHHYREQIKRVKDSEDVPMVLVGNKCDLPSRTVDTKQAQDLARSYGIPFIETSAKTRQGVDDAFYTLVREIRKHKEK
Sequence of KRAS G12V (P62937 whole entry): as the sequence (P62937 whole entry) above
Source text: as §1, §2, §3
as §2, with “BRAF^RBDD” for “BRAF^RBD”

KRAS G13C = KRAS G13C (Homo sapiens, UniProt P01116+P62937, G13C); conditions: KRAS G13C; read-out: KRAS G13C FRET data IC50
Sequence of KRAS G13C (P01116 1-169 isoform P01116-2 G13C): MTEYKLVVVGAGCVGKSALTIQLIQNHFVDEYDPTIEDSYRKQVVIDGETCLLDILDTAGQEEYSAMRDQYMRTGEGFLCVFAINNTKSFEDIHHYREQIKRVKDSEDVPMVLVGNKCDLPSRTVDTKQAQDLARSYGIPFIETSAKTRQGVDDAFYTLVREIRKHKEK
Sequence of KRAS G13C (P62937 whole entry): as the sequence (P62937 whole entry) above
Source text: as §1, §2, §3
as §2, with “BRAF^RBDD” for “BRAF^RBD”

KRAS WT = KRAS WT (Homo sapiens, UniProt P01116+P62937); conditions: KRAS WT; read-out: KRAS WT FRET data IC50
Sequence of KRAS WT (P01116 1-169 isoform P01116-2 limits assumed): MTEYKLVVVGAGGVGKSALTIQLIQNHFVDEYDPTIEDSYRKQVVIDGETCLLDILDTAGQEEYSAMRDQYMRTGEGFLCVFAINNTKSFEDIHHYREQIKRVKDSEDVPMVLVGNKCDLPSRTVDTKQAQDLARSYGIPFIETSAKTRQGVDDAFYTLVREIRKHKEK
Sequence of KRAS WT (P62937 whole entry): as the sequence (P62937 whole entry) above
Source text: as §1, §2, §3
as §2, with “BRAF^RBDD” for “BRAF^RBD”

NRAS G12C = NRAS G12C (Homo sapiens, UniProt P01111+P62937, G12C); conditions: NRAS G12C; read-out: NRAS G12C FRET data IC50
Sequence of NRAS G12C (P01111 whole entry G12C): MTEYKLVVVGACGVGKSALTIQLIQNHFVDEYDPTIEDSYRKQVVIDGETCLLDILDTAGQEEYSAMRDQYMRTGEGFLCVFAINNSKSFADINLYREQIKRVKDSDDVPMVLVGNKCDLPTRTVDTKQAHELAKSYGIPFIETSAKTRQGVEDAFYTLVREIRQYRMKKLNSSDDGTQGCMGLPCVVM
Sequence of NRAS G12C (P62937 whole entry): as the sequence (P62937 whole entry) above
Source text: as §1, §2, §3
as §2, with “BRAF^RBDD” for “BRAF^RBD”

Sequence of KRAS G12C (P01116 1-169 isoform P01116-2 G12C): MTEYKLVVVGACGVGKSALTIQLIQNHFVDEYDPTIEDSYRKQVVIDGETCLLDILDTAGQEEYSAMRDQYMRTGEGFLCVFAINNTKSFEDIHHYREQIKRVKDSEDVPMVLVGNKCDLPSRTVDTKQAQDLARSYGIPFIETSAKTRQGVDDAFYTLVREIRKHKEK
Sequence of KRAS G12C (P62937 whole entry): as the sequence (P62937 whole entry) above

Structure (SMILES): C=CC(=O)N1CC[C@H](C(=O)N(C)[C@H](C(=O)N[C@H]2Cc3cc(OC(=O)CCC(=O)O)cc(c3)-c3ccc4c(c3)c(c(-c3ccccc3CCOC)n4CC)CC(C)(C)COC(=O)[C@@H]3CCCN(N3)C2=O)C(C)C)C1 [Example A032]
- IC50 (KRAS G12C): 10 to 100 nM and 1000 to 10000 nM
- IC50 (KRAS G12D): > 10000 nM
- IC50 (KRAS G12S): 100 to 1000 nM and > 10000 nM
- IC50 (KRAS G12V): 1000 to 10000 nM and > 10000 nM
- IC50 (KRAS G13C): 1000 to 10000 nM and > 10000 nM
- IC50 (KRAS WT): 1000 to 10000 nM and > 10000 nM

Structure (SMILES): C=CC(=O)N1C[C@H](C)[C@H](C(=O)N(C)[C@H](C(=O)N[C@H]2Cc3cc(O)cc(c3)-c3ccc4c(c3)c(c(-c3ccccc3CCOC)n4CC)CC(C)(C)COC(=O)[C@@H]3CCCN(N3)C2=O)C(C)C)C1 [Example A041]
- IC50 (KRAS G12C): 100 to 1000 nM
- IC50 (KRAS G12D): > 10000 nM
- IC50 (KRAS G12S): 100 to 1000 nM
- IC50 (KRAS G12V): 100 to 1000 nM
- IC50 (KRAS G13C): 1000 to 10000 nM
- IC50 (KRAS WT): 1000 to 10000 nM

Structure (SMILES): C=CC(=O)N1CC[C@H](C(=O)N(C)[C@H](C(=O)N[C@H]2Cc3cc(O)cc(c3)-c3ccc4c(c3)c(c(C3=C(COC)COCC3)n4CC)CC(C)(C)COC(=O)[C@@H]3CCCN(N3)C2=O)C(C)C)C1 [Example A058]
- IC50 (KRAS G12C): 10 to 100 nM
- IC50 (KRAS G12D): 1000 to 10000 nM
- IC50 (KRAS G12S): 100 to 1000 nM
- IC50 (KRAS G12V): 100 to 1000 nM
- IC50 (KRAS G13C): 1000 to 10000 nM
- IC50 (KRAS WT): 1000 to 10000 nM

Structure (SMILES): C=CC(=O)N1CC2(CCN([C@H](C(=O)N[C@H]3Cc4cc(O)cc(c4)-c4ccc5c(c4)c(c(-c4ccccc4CCOC)n5CC)CC(C)(C)COC(=O)[C@@H]4CCCN(N4)C3=O)C(C)C)C2=O)C1 [Example A031]
- IC50 (KRAS G12C): 10 to 100 nM
- IC50 (KRAS G12D): > 10000 nM
- IC50 (KRAS G12S): 1000 to 10000 nM
- IC50 (KRAS G12V): 1000 to 10000 nM
- IC50 (KRAS G13C): 10 to 100 nM
- IC50 (KRAS WT): 1000 to 10000 nM

Structure (SMILES): C=CC(=O)N1CC[C@H](C(=O)N(C)[C@H](C(=O)N[C@H]2Cc3cc(cc(O)c3F)-c3ccc4c(c3)c(c(-c3ccccc3CCOC)n4CC)CC(C)(C)COC(=O)[C@@H]3CCCN(N3)C2=O)C(C)C)C1 [Example A009]
- IC50 (KRAS G12C): 1000 to 10000 nM
- IC50 (KRAS G12D): > 10000 nM
- IC50 (KRAS G12S): > 10000 nM
- IC50 (KRAS G12V): > 10000 nM
- IC50 (KRAS G13C): > 10000 nM
- IC50 (KRAS WT): > 10000 nM

Structure (SMILES): C=CC(=O)N1CC[C@H](C(=O)N(C)[C@H](C(=O)N[C@H]2Cc3cc(O)cc(c3)-c3ccc4c(c3)c(c(-c3ccc5cc(CN(C)C)n(C)c5c3)n4CC)CC(C)(C)COC(=O)[C@@H]3CCCN(N3)C2=O)C(C)C)C1 [Example A035]
- IC50 (KRAS G12C): 100 to 1000 nM
- IC50 (KRAS G12D): > 10000 nM
- IC50 (KRAS G12S): 1000 to 10000 nM
- IC50 (KRAS G12V): 1000 to 10000 nM
- IC50 (KRAS G13C): 1000 to 10000 nM
- IC50 (KRAS WT): 1000 to 10000 nM

Structure (SMILES): C=CC(=O)N1CC[C@]2(COCCN2C(=O)N(C)[C@H](C(=O)N[C@H]2Cc3nc(cs3)-c3ccc4c(c3)c(c(-c3cccnc3[C@H](C)OC)n4CC)CC(C)(C)COC(=O)[C@@H]3CCCN(N3)C2=O)C(C)C)C1 (atropisomer, axis not shown) [Example A677]
- IC50 (NRAS G12C): 100 to 1000 nM

Structure (SMILES): C=CC(=O)N1CC[C@H](C(=O)N(C)[C@H](C(=O)N[C@H]2Cc3cc(OC(=O)CN)cc(c3)-c3ccc4c(c3)c(c(-c3ccccc3CCOC)n4CC)CC(C)(C)COC(=O)[C@@H]3CCCN(N3)C2=O)C(C)C)C1 [Example A008]
- IC50 (KRAS G12C): 100 to 1000 nM
- IC50 (KRAS G12D): > 10000 nM
- IC50 (KRAS G12S): 1000 to 10000 nM
- IC50 (KRAS G12V): 1000 to 10000 nM
- IC50 (KRAS G13C): 1000 to 10000 nM
- IC50 (KRAS WT): 1000 to 10000 nM

Structure (SMILES): C=CC(=O)N1CC[C@H](C(=O)N(C)[C@H](C(=O)N[C@H]2Cc3cc(O)cc(c3)-c3ccc4c(c3)c(c(-c3ccc(CN5CC[C@@H](O)C5)cc3)n4CC)CC(C)(C)COC(=O)[C@@H]3CCCN(N3)C2=O)C(C)C)C1 [Examples A001]
- IC50 (KRAS G12C): 100 to 1000 nM
- IC50 (KRAS G12D): > 10000 nM
- IC50 (KRAS G12S): 1000 to 10000 nM
- IC50 (KRAS G12V): 1000 to 10000 nM
- IC50 (KRAS G13C): 1000 to 10000 nM
- IC50 (KRAS WT): > 10000 nM

Structure (SMILES): CCn1c(-c2ccccc2CN(C)C)c2c3cc(ccc31)-c1cc(O)cc(c1)C[C@H](NC(=O)[C@H](C(C)C)N(C)C(=O)c1ccc(NC(=O)/C=C/CN(C)C)cn1)C(=O)N1CCC[C@H](N1)C(=O)OCC(C)(C)C2 [Example A046]
- IC50 (KRAS G12C): 100 to 1000 nM
- IC50 (KRAS G12D): 1000 to 10000 nM
- IC50 (KRAS G12S): > 10000 nM
- IC50 (KRAS G12V): 1000 to 10000 nM
- IC50 (KRAS G13C): 10 to 100 nM
- IC50 (KRAS WT): > 10000 nM

Structure (SMILES): C=CC(=O)N1CC[C@H](C(=O)N(C)[C@H](C(=O)N[C@H]2Cc3cc(O)cc(c3)-c3ccc4c(c3)c(c(-c3cccnc3COCC)n4CC)CC(C)(C)COC(=O)[C@@H]3CCCN(N3)C2=O)C(C)C)C1 [Example A044]
- IC50 (KRAS G12C): 10 to 100 nM
- IC50 (KRAS G12D): 1000 to 10000 nM
- IC50 (KRAS G12S): 100 to 1000 nM
- IC50 (KRAS G12V): 100 to 1000 nM
- IC50 (KRAS G13C): 100 to 1000 nM
- IC50 (KRAS WT): 1000 to 10000 nM
